Measured values from ChEMBL document CHEMBL5352498, “Aza-Residue Modulation of Cyclic d,l-α-Peptide Nanotube Assembly with Enhanced Anti-Amyloidogenic Activity” (J Med Chem, 2023).
Activity calls are given as the source filed them. The calls are words filed in the database; no cut-off is given here. Where a SMILES comes first, the peptide text is derived from it. [ ]: non-standard residue; d: D form. Nle = CCCC[C@H](N)C(=O)O

Columns and labels:
[1] = target: Amyloid-beta precursor protein (Homo sapiens) (UniProt P05067); assay: Inhibition of amyloid beta 40 (unknown origin) aggregation assessed as reduction in fibril formation by measuring fluorescence intensity at 100 to 500 uM measured for 72 hrs by ThT flourescence assay; settings: dose 100-500 µM
[2] = target: Amyloid-beta precursor protein (Homo sapiens) (UniProt P05067); assay: Inhibition of amyloid beta 40 (unknown origin) aggregation assessed as reduction in fibril formation by measuring fluorescence intensity at compound:Abeta40 concentration ratio of 1:5 and measured for 72 hrs by ThT flourescence assay relative to control
[3] = target: Amyloid-beta precursor protein (Homo sapiens) (UniProt P05067); assay: Induction of amyloid beta 40 fibrils (unknown origin) disaggregation assessed as decrease in relative fluorescence intensity at 500 uM incubated for 24 hrs ThT flourescence assay relative to control; design: scale not given: the % may be the effect or the level left
[4] = target: Amyloid-beta precursor protein (Homo sapiens) (UniProt P05067); assay: Inhibition of amyloid beta 42 (unknown origin) aggregation assessed as decrease in fibril formation by measuring fluorescence intensity and measured for 72 hrs by ThT flourescence assay
[5] = test system: PC-12; assay: Cytotoxicity against rat PC12 cells assessed as reduction in cell viability at 100 uM incubated for 24 hrs by MTT assay; assay type: toxicity, cell-based; settings: pc-12, 24 h
[6] = target: Amyloid-beta precursor protein (Homo sapiens) (UniProt P05067); assay: Inhibition of amyloid beta 40 (unknown origin) aggregation assessed as assessed as decrease in oligomer formation by measuring decrease in oligomer-specific A11 antibody spots at 150 uM and measured for 48 hrs by Dot-Blot assay
[7] = target: Amyloid-beta precursor protein (Homo sapiens) (UniProt P05067); assay: Inhibition of amyloid beta 40 (unknown origin) aggregation assessed as assessed as decrease in fibril formation by measuring decrease in fibril-specific OC antibody spots at 150 uM and measured for 48 hrs by Dot-Blot assay
[8] = target: Amyloid-beta precursor protein (Homo sapiens) (UniProt P05067); assay: Inhibition of amyloid beta 40 (unknown origin) aggregation assessed as decrease in […] conformation of protein secondary structure at 50 uM incubated for 24 hrs by Circular dichroism spectroscopy analysis
[9] = target: Amyloid-beta precursor protein (Homo sapiens) (UniProt P05067); assay: Inhibition of amyloid beta 40 (unknown origin) aggregation assessed as reduction in fibril formation by measuring fluorescence intensity at compound:Abeta40 concentration ratio of 1:1 and measured for 72 hrs by ThT flourescence assay relative to control
[10] = test system: PC-12; assay: Neuroprotective activity against amyloid beta 40-induced cytotoxicity in rat PC12 cells assessed as increase in cell viability at compound:Abeta40 concentration ratio of 1:5 and incubated for 24 hrs by MTT assay relative to control; assay type: functional
[11] = test system: Caenorhabditis elegans; assay: Neuroprotective activity against transgenic Caenorhabditis elegans GMC101 Alzheimer's disease model expressing human amyloid beta 42 assessed as increase in fractional of unparalyzed worms at 5 uM (Rvb=51%); assay type: functional
[12] = test system: Caenorhabditis elegans; assay: (§1) Neuroprotective activity against transgenic Caenorhabditis elegans CL2355 Alzheimer's disease model expressing human amyloid beta (1 to 42 residues) in neuron assessed as increase in motility by measuring bending frequency at 5 uM incubated for 36 hrs at 16 degreeC and 36 hrs at 23 degreeC (reference value: 72); assay type: functional; settings: time 72 hrs
[13] = test system: Caenorhabditis elegans; assay: (§2) Neuroprotective activity against transgenic Caenorhabditis elegans CL2355 Alzheimer's disease model expressing human amyloid beta (1 to 42 residues) in neuron assessed as increase in chemotaxis index at 50 uM incubated for 36 hrs at 16 degreeC and 36 hrs at 23 degreeC by Chemotaxis Assay (0.22; assay type: functional; settings: time 72 hrs
[14] = test system: PC-12; assay: Neuroprotective activity against amyloid beta 40-induced cytotoxicity in rat PC12 cells assessed as increase in cell viability at compound:Abeta40 concentration ratio of 1:1 and incubated for 24 hrs by MTT assay relative to control; assay type: functional, cell-based
[15] = target: Amyloid-beta precursor protein (Homo sapiens) (UniProt P05067); assay: Inhibition of amyloid beta 40 (unknown origin) self aggregation assessed as change in fibril morphology at 500 uM incubated for 72 hrs by TEM analysis
[16] = test system: Caenorhabditis elegans; assay: Neuroprotective activity in transgenic Caenorhabditis elegans GMC101 Alzheimer's disease model overexpressing human amyloid beta (1 to 42 residues) in body-wall muscle assessed as reduction in fibril-specific […] antibody spots incubated for 48 hrs by immunochemical dot-blot analysis; assay type: functional, organism-based
[17] = test system: Caenorhabditis elegans; assay: Neuroprotective activity in transgenic Caenorhabditis elegans GMC101 Alzheimer's disease model overexpressing human amyloid beta (1 to 42 residues) in body-wall muscle assessed as delay in amyloid beta 42-induced paralysis at 5 to 50 uM incubated for 48 hrs; assay type: functional, organism-based; settings: dose 5-50 µM
[18] = test system: Caenorhabditis elegans; assay: Neuroprotective activity in transgenic Caenorhabditis elegans GMC101 Alzheimer's disease model expressing human amyloid beta (1 to 42 residues) in body-wall muscle assessed as increase in fraction of unparalyzed worms at 5 uM incubated for 48 hrs (Rvb= 56%); assay type: functional
[19] = test system: Caenorhabditis elegans; assay: Neuroprotective activity against wild type Caenorhabditis elegans CL2122 assessed as delay in amyloid beta 42-induced paralysis at 50 uM incubated for 48 hrs; assay type: functional, organism-based
[20] = test system: Caenorhabditis elegans; assay: Neuroprotective activity against transgenic Caenorhabditis elegans CL2355 Alzheimer's disease model expressing human amyloid beta (1 to 42 residues) in neuron assessed as increase in motility at 5 to 50 uM incubated for 36 hrs at 16 degreeC and 36 hrs at 23 degreeC; assay type: functional, organism-based; settings: dose 5-50 µM, time 72.0 hrs
[21] = test system: Caenorhabditis elegans; assay: as §1, with “74)” for “72)”; assay type: functional; settings: time 72 hrs
[22] = test system: Caenorhabditis elegans; assay: as §2, with “assessed as neutralization of damaging effect of amyloid beta aggregation by measuring increase in” for “assessed as increase in”, “Chemotaxis Assay” for “Chemotaxis Assay (0.22”; assay type: functional, organism-based; settings: time 72.0 hrs
[23] = test system: Caenorhabditis elegans; assay: Neuroprotective activity in transgenic Caenorhabditis elegans GMC101 Alzheimer's disease model overexpressing human amyloid beta (1 to 42 residues) in body-wall muscle assessed as reduction in oligomeric-specific A11 antibody spots incubated for 48 hrs by immunochemical dot-blot analysis; assay type: functional, organism-based
[24] = test system: Caenorhabditis elegans; assay: Neuroprotective activity in transgenic Caenorhabditis elegans GMC101 Alzheimer's disease model overexpressing human amyloid beta (1 to 42 residues) in body-wall muscle assessed as reduction in amyloid beta fibrils incubated for 48 hrs by Western blot analysis; assay type: functional, organism-based
[25] = test system: Caenorhabditis elegans; assay: Neuroprotective activity in transgenic Caenorhabditis elegans GMC101 Alzheimer's disease model overexpressing human amyloid beta (1 to 42 residues) in body-wall muscle assessed as reduction in amyloid beta oligomers incubated for 48 hrs by Western blot analysis; assay type: functional, organism-based
[26] = test system: Caenorhabditis elegans; assay: Neuroprotective activity against wild type Caenorhabditis elegans CL2122 assessed as motility changes by measuring worms bending frequency at 50 uM incubated for 36 hrs at 16 degreeC and 36 hrs at 23 degreeC; assay type: functional, organism-based; settings: time 72.0 hrs
[27] = target: Amyloid-beta precursor protein (Homo sapiens) (UniProt P05067); assay: Inhibition of amyloid beta 42 (unknown origin) aggregation assessed as reduction in fibril formation by measuring fluorescence intensity at compound:Abeta42 concentration ratio of 1:5 and measured for 72 hrs by ThT flourescence assay relative to control
[28] = target: Amyloid-beta precursor protein (Homo sapiens) (UniProt P05067); assay: Inhibition of amyloid beta 40 (unknown origin) self aggregation assessed as decrease in fibril formation at 500 uM incubated for 72 hrs by TEM analysis

Chain of Amyloid-beta precursor protein (Homo sapiens) (P05067 whole entry): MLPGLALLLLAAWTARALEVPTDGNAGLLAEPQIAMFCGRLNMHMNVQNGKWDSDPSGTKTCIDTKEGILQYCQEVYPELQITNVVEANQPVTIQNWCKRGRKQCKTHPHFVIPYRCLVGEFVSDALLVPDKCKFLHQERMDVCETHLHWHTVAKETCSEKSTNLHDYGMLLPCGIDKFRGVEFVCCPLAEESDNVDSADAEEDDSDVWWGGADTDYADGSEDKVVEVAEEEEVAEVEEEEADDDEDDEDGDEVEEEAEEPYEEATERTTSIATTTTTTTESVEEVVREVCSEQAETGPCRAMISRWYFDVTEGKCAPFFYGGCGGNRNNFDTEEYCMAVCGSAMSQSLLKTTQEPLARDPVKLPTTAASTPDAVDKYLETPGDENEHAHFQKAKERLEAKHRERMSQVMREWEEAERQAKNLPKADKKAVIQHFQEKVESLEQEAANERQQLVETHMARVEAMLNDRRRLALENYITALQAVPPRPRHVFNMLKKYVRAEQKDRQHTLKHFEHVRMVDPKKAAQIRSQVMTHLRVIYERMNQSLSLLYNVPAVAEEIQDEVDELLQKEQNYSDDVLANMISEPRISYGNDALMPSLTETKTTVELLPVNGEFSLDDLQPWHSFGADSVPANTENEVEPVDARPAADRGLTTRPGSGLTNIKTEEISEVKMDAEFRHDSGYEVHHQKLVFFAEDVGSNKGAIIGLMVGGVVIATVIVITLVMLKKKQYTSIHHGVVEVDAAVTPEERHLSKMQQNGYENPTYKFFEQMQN

SMILES	inhibition [1]	inhibition [2]	Activity [3] [%]	inhibition [4]	Activity [5]	inhibition [6]	inhibition [7]	inhibition [8]	inhibition [9]	Activity [10] [%]	Activity [14]	also measured
CCCC[C@@H]1NC(=O)[C@@H](CC(C)C)NC(=O)[C@H](CCCCN)NC(=O)[C@@H](CO)NC(=O)[C@H](Cc2c[nH]cn2)NC(=O)N(Cc2cc3ccccc3[nH]2)NC1=O	Active	Active	< 50	inactive	Toxic	inactive	inactive	inactive				
CCCC[C@@H]1NC(=O)[C@@H](CC(C)C)NC(=O)[C@H](CCCCN)NC(=O)[C@@H](CO)NC(=O)[C@H](Cc2c[nH]cn2)NC(=O)[C@@H](Cc2c[nH]c3ccccc23)NC1=O (cyclo(K[dL][Nle][dW]H[dS]))		89%	33		Non-Toxic				50%	88		Activity [11]: 86%; Activity [12]: 82; Activity [13]: 0.32
CCCC[C@@H]1NC(=O)N(CC(C)C)NC(=O)[C@H](CCCCN)NC(=O)[C@@H](CO)NC(=O)[C@H](Cc2c[nH]cn2)NC(=O)[C@@H](Cc2c[nH]c3ccccc23)NC1=O (racemic)	Active	inactive	72		Toxic	inactive	inactive	Active	inactive			
CCCC[C@@H]1NC(=O)[C@@H](CC(C)C)NC(=O)[C@H](CCCCN)NC(=O)N(CCO)NC(=O)[C@H](Cc2c[nH]cn2)NC(=O)[C@@H](Cc2c[nH]c3ccccc23)NC1=O (racemic)	Active	Active	< 50	Active	Non-Toxic	Active		60%		>90	Active	inhibition [15]: Active; Activity [16]: Active; Activity [17]: Dose-Dependent Effect; Activity [18]: 60%; Activity [19]: inactive; Activity [20]: Dose-Dependent Effect; Activity [21]: 79; Activity [22]: Active; Activity [23]: Active; Activity [24]: Active; Activity [25]: Active; Activity [26]: inactive
CCCC[C@@H]1NC(=O)[C@@H](CC(C)C)NC(=O)[C@H](CCCCN)NC(=O)[C@@H](CO)NC(=O)N(Cc2c[nH]nn2)NC(=O)[C@@H](Cc2c[nH]c3ccccc23)NC1=O (racemic)	Active	Active	< 50	Active	Non-Toxic	Active	Active	60%		>90		
CCCC[C@@H]1NC(=O)[C@@H](CC(C)C)NC(=O)N(CCCCN)NC(=O)[C@@H](CO)NC(=O)[C@H](Cc2c[nH]cn2)NC(=O)[C@@H](Cc2c[nH]c3ccccc23)NC1=O (racemic)	Active	inactive	< 50	Active	Non-Toxic	Active		Active	inactive	>90	Active	inhibition [15]: Active
CCCCN1NC(=O)[C@@H](CC(C)C)NC(=O)[C@H](CCCCN)NC(=O)[C@@H](CO)NC(=O)[C@H](Cc2c[nH]cn2)NC(=O)[C@@H](Cc2c[nH]c3ccccc23)NC1=O (racemic)	Active	88%	< 50	Active	Non-Toxic	Active	Active	inactive	93%	>90	Active	inhibition [27]: 87.6%; inhibition [28]: Active; Activity [16]: Active; Activity [17]: Dose-Dependent Effect; Activity [18]: 76%; Activity [19]: inactive; Activity [20]: Dose-Dependent Effect; Activity [21]: 79; Activity [22]: Active; Activity [23]: Active; Activity [24]: Active; Activity [25]: Active; Activity [26]: inactive
